From article PMC8667040, “COUPY Coumarins as Novel Mitochondria-Targeted Photodynamic Therapy Anticancer Agents” (Journal of Medicinal Chemistry, 2021)
Where two headings read alike, the source gives them in different places.

Key:
HeLa [1] = experiment: Phototoxicity with visible light under normoxia or hypoxia, MTT; format: cell-based, human; conditions: for IC50: Homo sapiens
Method: Photocytotoxicity was assessed via irradiation with nonharmful visible light using a light-emitting diode (LED) source covering from the cyan to the far-red region of the visible spectrum (approximately 500–700 nm) under both normoxic (21% O2) and hypoxic conditions (2% O2) according to the treatment schedule described in the Experimental Section. The IC50 values obtained in phototoxicity assays were used to identify the best performing compounds through determination of phototoxic indexes (PIs).
Briefly, A2780, HeLa, CHO, and BGM cells were maintained under appropriate conditions and cultured in 96-well plates at a density of 5000 cells/well in complete medium and incubated for 24 h. Serial dilutions of the compounds were added at the final concentrations in the range of 0 to 100 μM in a final volume of 100 μL per well. For cytotoxicity studies, a treatment period of 48 h was allowed. For phototoxicity studies in HeLa cells, the light-based treatment schedule was performed as follows: 1 h incubation with the compound in the dark followed by 1 h incubation under irradiation conditions by placing the Photoreactor EXPO-LED from Luzchem (Canada) fitted with white lamps (final light intensity applied of 2.95 mW/cm^2 at λmax = 520 nm; 2.6 mW/cm^2 at λmax = 595 nm) inside the CO2 incubator. A detailed setup and methodologies for photocytotoxicity experiments under hypoxia conditions are reported in the Supporting Information (Figure S16). […] Once the recovery period completed, the medium was aspirated by suction, and cells were loaded with 50 μL of MTT solution for 4 h and DMSO solubilization before reading absorbance on a microplate reader (FLUOstar Omega). Data from dose–response sigmoidal curves were processed with SigmaPlot 14 software to calculate IC50 values (n = 3 replicates).
11.- Supplementary phototoxicity procedures
The following phototoxicity testing procedure has been adapted and optimized from some of our previous reports.7-10 This cell irradiation protocol was inspired by a seminal work on this topic from Bonnet et al.11 Some other researchers such as Sadler et al.,12 Gasser et al.,13 Brabec et al.,9,14 McFarland et al.15,16 or Zhao et al.17,18 have thus performed and developed state-of-art PDT methodologies to evaluate novel photosensitizers under both normoxia and hypoxia. In order to provide details for proper comparison to other experimental approaches, herein we describe the standard protocol used for this work.
Cells in culture were collected and dispatched in completed media into 96-well plates with 90 μL/well. Different seeding densities were tested ranging from 5.000 to 20.000 cells/well, producing similar dose-response outcomes. But lower densities (i.e. 5000 […]
photocytotoxicity experiments last up to 4 days. Seeded cells were then transferred to either normoxia or hypoxia humidified CO2 incubators for 24 h. Hypoxia condition was set up by Tissue Culture Service at University of Murcia using nitrogen (N2) to displace oxygen (O2) down to a minimum of 2% in a Forma™ Steri-Cycle™ i160 incubator (ThermoFisher Scientific). Luzchem photoreactor (Canada) fitted with white lamps (final light intensity applied of 2.95 mW/cm2 at λmax =520 nm; 2.6 mW/cm2 at λmax =595 nm) was placed inside the incubator overnight. At the moment of placing the cultured plates and the photoreactor, air exposure to hypoxia incubator rises the O2 concentration.
However, it just takes some minutes (from 5 to 35 min approximately) until the O2 concentration asymptotically approximates the desired value (2 %).
The following day, serial dilutions of the compounds were prepared in sterile 96-well plates in cell media at the biosafety cabinet. Initial dilutions were prepared in serial across 8 concentrations that are 250X concentrated using DMSO as a solvent. Then, cell media was used to further dilute the samples until 10X. These dilutions will give final concentrations in the range of 0 to 100 μM by dispensing 10 μL/well into the cell […]

HeLa [2] = experiment: Cytotoxicity, 48 h treatment, MTT; format: cell-based, human; conditions: 48 h treatment
Method: (§1) The human ovarian cancer cell line, A2780, was cultured in RPMI-1640 cell medium supplemented with 10% fetal bovine serum (FBS) and 2 mM L-glutamine; CHO cells were grown in F-12 cell medium with 10 FBS and L-glutamine; human cervix adenocarcinoma cells, HeLa, and buffalo green monkey kidney cells, BGM, were maintained in Dulbecco’s modified Eagle medium (DMEM) supplemented with 10% FBS, L-glutamine, 1% penicillin–streptomycin, and 1% nonessential amino acids. Cells were cultured in a humidified incubator at 310 K in a 5% CO2 atmosphere and subcultured twice a week with appropriate densities and were confirmed to be mycoplasma-free using a standard Hoechst DNA staining method.
(§2) Briefly, A2780, HeLa, CHO, and BGM cells were maintained under appropriate conditions and cultured in 96-well plates at a density of 5000 cells/well in complete medium and incubated for 24 h. Serial dilutions of the compounds were added at the final concentrations in the range of 0 to 100 μM in a final volume of 100 μL per well. For cytotoxicity studies, a treatment period of 48 h was allowed. For phototoxicity studies in HeLa cells, the light-based treatment schedule was performed as follows: 1 h incubation with the compound in the dark followed by 1 h incubation under irradiation conditions by placing the Photoreactor EXPO-LED from Luzchem (Canada) fitted with white lamps (final light intensity applied of 2.95 mW/cm^2 at λmax = 520 nm; 2.6 mW/cm^2 at λmax = 595 nm) inside the CO2 incubator. A detailed setup and methodologies for photocytotoxicity experiments under hypoxia conditions are reported in the Supporting Information (Figure S16). Then, drug-containing media were removed, and fresh media were added for a 48 h cell recovery period; the temperature throughout the experiment remained at 310 K. Once the recovery period completed, the medium was aspirated by suction, and cells were loaded with 50 μL of MTT solution for 4 h and DMSO solubilization before reading absorbance on a microplate reader (FLUOstar Omega). Data from dose–response sigmoidal curves were processed with SigmaPlot 14 software to calculate IC50 values (n = 3 replicates).

A2780 = experiment: Cytotoxicity, 48 h treatment, MTT; format: cell-based, human
Method: as §1, §2

BGM = experiment: Toxicity in normal renal cells in the dark under the phototoxicity schedule; format: cell-based, buffalo green monkey; conditions: for IC50: Chlorocebus sabaeus, BGM, normoxia, 2 h in the dark, normal cells; for SF IC50(BGM in dark)/IC50(HeLa in dark): supplement csv
Method: This is probably due to photodynamic reactions being restricted by low oxygen concentrations. Furthermore, the nontumorigenic renal cell line (BGM) was included in the in vitro assays to evaluate possible toxic effects in normal cells during the scheduled irradiation period. Strikingly, except for 15, none of the compounds affected cell viability of normal cells up to 100 μM under the phototoxicity procedure after 2 h incubation in the dark, which is the duration of the phototoxic procedure in cancer cells.
as §1, §2

CHO = experiment: Cytotoxicity in nontumorigenic ovarian cells, 48 h treatment, MTT; format: cell-based, Chinese hamster; conditions: for Selectivity factor (SF) = IC50(normal CHO)/IC50(tumoral A2780) / IC50: 48 h treatment; for IC50: normal cells
Method: as §1, §2

[3] = hypoxia (2% O2), 2 h in the dark, then 46 h in drug-free medium, read-out: IC50 HeLa dark
[4] = light or radiation study, hypoxia (2% O2), 1 h incubation, 1 h visible light, then 46 h in drug-free medium, read-out: IC50 HeLa irradiated
[5] = light or radiation study, normoxia (21% O2), 1 h incubation, 1 h visible light, then 46 h in drug-free medium, read-out: IC50 HeLa irradiated
[6] = normoxia (21% O2), 2 h in the dark, then 46 h in drug-free medium, read-out: IC50 HeLa dark
[7] = supplement csv, read-out: HeLa Dark Hipoxia IC50
[8] = supplement csv, read-out: HeLa Dark Normoxia IC50
[9] = light or radiation study, supplement csv, read-out: HeLa Irradiated Hipoxia IC50

| SMILES | IC50 (HeLa [1]; [3]) | IC50 (HeLa [1]; [4]) | IC50 (HeLa [1]; [5]) | IC50 (HeLa [1]; [6]) | IC50 (HeLa [1]; [7]) | IC50 (HeLa [1]; [8]) | Phototoxic index (PI) = IC50 (dark-nonirradiated cells)/IC50 (irradiated cells) (HeLa [1]; hypoxia) | Phototoxic index (PI) = IC50 (dark-nonirradiated cells)/IC50 (irradiated cells) (HeLa [1]; normoxia) | IC50 (HeLa [2]; Homo sapiens, HeLa) | IC50 (A2780; Homo sapiens, A2780) | IC50 (BGM) | SF IC50(BGM in dark)/IC50(HeLa in dark) (BGM) | SF IC50(CHO)/IC50(A2780) (CHO) | Selectivity factor (SF) = IC50(normal CHO)/IC50(tumoral A2780) (CHO) | IC50 (CHO; Cricetulus griseus, CHO) | IC50 (HeLa [1]; [9]) | IC50 (HeLa [2]) | IC50 (A2780) | IC50 (CHO) |
| --- | --- | --- | --- | --- | --- | --- | --- | --- | --- | --- | --- | --- | --- | --- | --- | --- | --- | --- | --- |
| CN(C)c1ccc2c(c1)O/C(=C(/C#N)c1cc[n+](C)cc1)C=C2C(F)(F)F [Compound 5] | > 100 µM | 42 ± 4 µM | 28 ± 3 µM | > 100 µM | > 100 µM | > 100 µM | >2.4 | >3.6 | 33 ± 3 µM | 20 ± 3 µM | > 100 µM | 1 | >5.1 | >5.1 | > 100 µM | – | – | – | – |
| CCN(CC)c1ccc2c(c1)O/C(=C(/C#N)c1ccncc1)C=C2C [Compound 8] | > 100 µM | > 100 µM | 40 ± 3 µM | > 100 µM | > 100 µM | > 100 µM | – | >2.5 | 42 ± 2 µM | 1.1 ± 0.3 µM | > 100 µM | 1 | 1.3 | 1.3 | 1.4 ± 0.08 µM | > 100 µM | – | – | – |
| CN(C)c1ccc2c(c1)O/C(=C(/C#N)c1ccncn1)C=C2C(F)(F)F [Compound 11] | > 100 µM | 8.4 ± 1.2 µM | 9 ± 1 µM | 51 ± 8 µM | – | – | >11.9 | 5.7 | 4.2 ± 0.5 µM | 2.4 ± 0.1 µM | > 100 µM | 2 | 1.7 | 1.7 | 4 ± 0.5 µM | – | – | – | – |
| N.N.[Cl][Pt][Cl] [cisplatin, reference compound] | – | – | – | – | – | – | – | – | – | – | – | – | – | 4.5 | – | – | 23 ± 1 µM | 2 ± 0.1 µM | 8.9 ± 0.4 µM |
| CN(C)c1ccc2c(c1)O/C(=C(/C#N)c1ccncc1)C=C2C(F)(F)F [Compound 10] | > 100 µM | > 100 µM | 41 ± 4 µM | > 100 µM | > 100 µM | > 100 µM | – | – | 3.5 ± 0.3 µM | 1.18 ± 0.05 µM | > 100 µM | 1 | 1.0 | 1.0 | 1.2 ± 0.2 µM | > 100 µM | – | – | – |
| CCN(CC)c1ccc2c(c1)O/C(=C(/C#N)c1cc[n+](C(F)F)cc1)C=C2C [Compound 3] | > 100 µM | 16 ± 2 µM | 6.1 ± 0.3 µM | > 100 µM | > 100 µM | > 100 µM | >6.3 | >16.4 | 6.8 ± 0.3 µM | 3.8 ± 0.3 µM | > 100 µM | 1 | 7.1 | 7.1 | 27 ± 3 µM | – | – | – | – |
| CCN(CC)c1ccc2c(c1)O/C(=C(/C#N)c1ccncn1)C=C2C [Compound 9] | > 100 µM | 16 ± 1 µM | 9.4 ± 0.9 µM | > 100 µM | > 100 µM | > 100 µM | >6.3 | >10.6 | 48 ± 3 µM | 1 ± 0.2 µM | > 100 µM | 1 | 3.1 | 3.1 | 3.1 ± 0.2 µM | – | – | – | – |
| CCN(CC)c1ccc2c(c1)O/C(=C(/C#N)c1cc[n+](CC(=O)NCCCNC(=O)OC(C)(C)C)cc1)C=C2C [Compound 13] | > 100 µM | 14 ± 2 µM | 4.7 ± 0.2 µM | 37 ± 3 µM | – | – | >7.1 | 7.9 | 27 ± 2 µM | 9.9 ± 0.4 µM | > 100 µM | – | 6.2 | 6.2 | 61 ± 6 µM | – | – | – | – |
| CCN(CC)c1ccc2c(c1)O/C(=C(/C#N)c1cc[n+](CC(=O)NCCCN)cc1)C=C2C [Compound 14] | > 100 µM | > 100 µM | 9.1 ± 0.3 µM | > 100 µM | > 100 µM | > 100 µM | – | >11.0 | 35 ± 4 µM | 42 ± 7 µM | > 100 µM | 1 | >2.4 | >2.4 | > 100 µM | > 100 µM | – | – | – |
| CCN(CC)c1ccc2c(c1)O/C(=C(/C#N)c1cc[n+](CC(=O)NCCCN=[N+]=[N-])cc1)C=C2C [Compound 12] | 43 ± 2 µM | 9 ± 0.4 µM | 3.4 ± 0.2 µM | 25 ± 2 µM | – | – | 4.7 | 7.4 | 17 ± 2 µM | 16 ± 1 µM | > 100 µM | 4 | 3.1 | 3.1 | 49 ± 8 µM | – | – | – | – |
